Literature values in publication PMC2363746, “Phase I dose-escalation and pharmacokinetic study of a novel folate analogue AG2034” (British Journal of Cancer, 2001).

Nc1nc2c(c(=O)[nH]1)C[C@@H](CCc1ccc(C(=O)N[C@@H](CCC(=O)O)C(=O)O)cc1)CN2 [lometrexol, (6R)-5,10-dideazatetrahydrofolate]
Unexpected toxicity in phase I studies (in vivo): myelosuppression and mucositis | Antitumour activity in phase I studies (ref Ray et al, 1993): objective antitumour activity
